Read-outs that look alike come from different tables or passages of the source.
Key:
calcium channel = conditions: literature comparison for D-30; cited from earlier work
[1] = tested on: guinea pig ileal longitudinal smooth muscle; assay: Calcium channel agonist testing: contractile response of guinea pig ileal longitudinal smooth muscle, compound given in place of CD; format: cell-based; conditions: for EC50: Cavia porcellus, given in the place of CD, no calcium antagonist added, read-out: effective dose producing 50% of the maximum contractile response
Protocol: Calcium channel antagonist activity was determined as the concentration required to produce 50% inhibition of the muscarinic receptor-mediated Ca^2+ -dependent contraction of guinea pig ileal longitudinal smooth muscle assay (C. Triggle, V. Swamy and D. Triggle, Can. J. Physiol. Pharmacol., 1979, 57, 804). Male albino guinea pigs (body weight 300-450 g) were sacrificed by decapitation. The intestine was removed above the ileo-caecal junction. Longitudinal smooth muscle segments of 2 cm length were mounted under a resting tension of 300-400 mg. The segments were maintained at 37° C. in a 10 mL jacketed organ bath containing oxygenated (100% O2) physiological saline solution of the following composition (mM): NaCl: 137; CaCl2 : 2.6; KCl: 5.9; MgCl2 : 1.2; glucose: 11.9; buffered by Hepes-NaOH to pH 7.4. The muscles were equilibrated for 1 h with a solution change every 15 min. Two successive control contractions were elicited at 15 min intervals with 5×10^-7 M cis-2-methyl- 4-dimethylaminomethyl-1,3-dioxolane methiodide (CD). The isometric contractions were recorded with a force displacement transducer (FT 03C) on a GRASS physiograph. The means of the two contractile responses was taken as the 100% value for the tonic (slow) component of the response. The muscle was washed with Hepes saline solution and was allowed to re-equilibrate. The calcium antagonist (test compound) was added ten min before the dose-response for CD was determined. The drug-induced inhibition of contraction was expressed as percent of control. The ID50 values were graphically determined from the concentration-response curves. The test results are shown in Table 7, the compounds testing being compared to Nifedipine (TM).
(§1) A modified protocol, used for testing calcium channel antagonists (vide supra), was used to determine the concentration at which D-30 produced 50% of the maximum contractile response. D-30 was administered in the place of CD and the dose-response curve was determined. A calcium antagonist was not added during the experiment. […] Similarly, the effective dose of the isomeric D-31 producing 50% of the maximum contractile response was 6.6×10^-5 M. Both D-30 and D-31 increased the guinea pig right atria heart rate by 30%.

guinea pig right atria = assay: Guinea pig right atria heart rate; format: cell-based
Protocol: as §1

[2] = tested on: guinea pig ileal longitudinal smooth muscle; assay: Calcium channel antagonist testing: inhibition of muscarinic receptor-mediated Ca2+-dependent contraction (response to CD) of guinea pig ileal longitudinal smooth muscle; format: cell-based; conditions: for IC50: 50% inhibition of tonic contraction to CD 5×10^-7 M, compound added 10 min before CD, 37° C., pH 7.4, read-out: Calcium channel antagonist act., inhib. act. on contractile response to CD, ID50; for calcium channel antagonist activity, comparison to Nifedipine (TM): conclusion from Table 7
Protocol: Male albino guinea pigs (body weight 300-450 g) were sacrificed by decapitation. The intestine was removed above the ileo-caecal junction. Longitudinal smooth muscle segments of 2 cm length were mounted under a resting tension of 300-400 mg. […] The muscles were equilibrated for 1 h with a solution change every 15 min. Two successive control contractions were elicited at 15 min intervals with 5×10^-7 M cis-2-methyl- 4-dimethylaminomethyl-1,3-dioxolane methiodide (CD). The isometric contractions were recorded with a force displacement transducer (FT 03C) on a GRASS physiograph. The means of the two contractile responses was taken as the 100% value for the tonic (slow) component of the response. The muscle was washed with Hepes saline solution and was allowed to re-equilibrate. The calcium antagonist (test compound) was added ten min before the dose-response for CD was determined. The drug-induced inhibition of contraction was expressed as percent of control. The ID50 values were graphically determined from the concentration-response curves.

For COC(=O)C1=C(C)NC(C)=C([N+](=O)[O-])C1c1ccccc1C(F)(F)F (stereo not shown) [Bay K 8644], which “calcium channel agonist activity of reference compounds” value (calcium channel) is on record?
The value was “calcium channel agonist which promotes calcium entry into cells”.

For CCOC(=O)C1=C(C)NC2=C(C(=O)OC2)C1c1ccccc1OC(F)F (stereo not shown) [CGP 28392], which “calcium channel agonist activity of reference compounds” value (calcium channel) is on record?
Its value is “calcium channel agonist which promotes calcium entry into cells”.

With COC(=O)C1=C(C)NC(C)=C([N+](=O)[O-])C1c1cccnc1 [Compound D-30, methyl 2,6-dimethyl-3-nitro-4-(3'-pyridyl)-1,4-dihydropyridine-5-carboxylate] as the compound, how does the EC50 [1] read?
The EC50 was 94 µM.

And the “calcium channel agonist activity” value ([1]; conclusion from contractile response)?
Its value is “calcium channel agonist which promotes calcium entry into cells”.

And the muscle contraction ([1]; tested using the calcium channel antagonist testing procedure)?
The muscle contraction was “caused muscle contraction”.

What about the “increase of guinea pig right atria heart rate” value (guinea pig right atria) of the same compound?
The value was 30%.

What does the source list for COC(=O)C1=C(C)NC(C)=C([N+](=O)[O-])C1c1ccncc1 [Compound D-31, methyl 2,6-dimethyl-3-nitro-4-(4'-pyridyl)-1,4-dihydropyridine-5-carboxylate]?
EC50 [1]: 66 µM; increase of guinea pig right atria heart rate (guinea pig right atria): 30%

With COC(=O)C1=C(C)N(C)C(C)C(C(=O)OC)=C1c1cccc([N+](=O)[O-])c1 (stereo not shown) [Compound S-5, Dimethyl 1,2,6-trimethyl-4-(3-nitrophenyl)-1,2-dihydropyridine-3,5-dicarboxylate] as the compound, how does the IC50 ([2]; Cavia porcellus) read?
Its IC50 is 7.9 µM.

Which IC50 ([2]; Cavia porcellus) does the source give for COC(=O)C1=C(C)N(C)C(C)C(C(=O)OC)=C1c1ccccc1[N+](=O)[O-] (stereo not shown) [Compound S-6, Dimethyl 1,2,6-trimethyl-4-(2-nitrophenyl)-1,2-dihydropyridine-3,5-dicarboxylate] here?
The IC50 was 2.52 µM.

For COC(=O)C1=C(C)N(C)C(C)C(C(=O)OC)=C1c1ccc(C(F)(F)F)cc1 (stereo not shown) [Compound W-1, Dimethyl 1,2,6-trimethyl-4-(4-trifluoromethylphenyl)-1,2-dihydropyridine-3,5-dicarboxylate], which IC50 ([2]; Cavia porcellus) is on record?
Its IC50 is 8.92 µM.

With COC(=O)C1=C(c2ccccc2[N+](=O)[O-])C(C(=O)OC(C)C)=C(C)N(C)C1C (stereo not shown) [Compound W-2, 3-Methyl-5-isopropyl 1,2,6-trimethyl-4-(2-nitrophenyl)-1,2-dihydropyridine-3,5-dicarboxylate] as the compound, how does the IC50 ([2]; Cavia porcellus) read?
The IC50 was 20 µM.

For COC(=O)C1=C(C)N(C)C(C)C(C(=O)OC(C)C)=C1c1ccccc1[N+](=O)[O-] (stereo not shown) [Compound W-3, 3-Isopropyl-5-methyl 1,2,6-trimethyl-4-(2-nitrophenyl)-1,2-dihydropyridine-3,5-dicarboxylate], which IC50 ([2]; Cavia porcellus) is on record?
Its IC50 is 10.5 µM.

With CC1=C(C(=O)OC(C)C)C(c2ccccc2[N+](=O)[O-])=C(C(=O)OC(C)C)C(C)N1C (stereo not shown) [Compound W-4, Diisopropyl 1,2,6-trimethyl-4-(2-nitrophenyl)-1,2-dihydropyridine-3,5-dicarboxylate] as the compound, how does the IC50 ([2]; Cavia porcellus) read?
Its IC50 is 5.73 µM.

Which IC50 [2] does the source give for “Diethyl 2,6-dimethyl-4-{3'-[N--methoxycarbonyl-1',2'-(1',6'-)dihydropyridyl]}-1,4-dihydropyridine-3,5-dicarboxylate [Compound D-33]” here?
The IC50 was 0.18 µM.

And the “calcium channel antagonist activity, comparison to Nifedipine (TM)” value (“calcium channel antagonist activity” below) [2]?
The value was “active calcium channel antagonists, being comparable to Nifedipine (TM)”.

For “Diethyl 2,6-dimethyl-4-{3'-[N--phenoxycarbonyl-1',2'-(1',6'-)dihydropyridyl]}-1,4-dihydropyridine-3,5-dicarboxylate [Compound D-37]”, which IC50 [2] is on record?
The IC50 was 0.865 µM.

And the “calcium channel antagonist activity” value [2]?
Its value is “active calcium channel antagonists, being comparable to Nifedipine (TM)”.

Which results are given for “Diethyl 2,6-dimethyl-4-{3'-[N--t-butoxycarbonyl-1',2'-(1',6'-)dihydropyridyl]}-1,4-dihydropyridine-3,5-dicarboxylate [Compound D-40]”?
IC50 [2]: 0.672 µM; calcium channel antagonist activity, comparison to Nifedipine (TM) [2]: active calcium channel antagonists, being comparable to Nifedipine (TM)

With “Diisobutyl 2,6-dimethyl-4-{3'-[N--methoxycarbonyl-1',2'(1',6'-)dihydropyridyl]}-1,4-dihydropyridine-3,5-dicarboxylate [Compound D-35]” as the compound, how does the IC50 [2] read?
Its IC50 is 0.771 µM.

What about the “calcium channel antagonist activity” value [2] of the same compound?
Its value is “active calcium channel antagonists, being comparable to Nifedipine (TM)”.

For “Diisobutyl 2,6-dimethyl-4-{3'-[N--phenoxycarbonyl-1',2'-(1',6'-)dihydropyridyl]}-1,4-dihydropyridine-3,5-dicarboxylate [Compound D-39]”, which IC50 [2] is on record?
The IC50 was 6.46 µM.

For “Diisobutyl 2,6-dimethyl-4-{3'-[N--t-butoxycarbonyl-1',2'-(1',6'-)dihydropyridyl]}-1,4-dihydropyridine-3,5-dicarboxylate [Compound D-42]”, which IC50 [2] is on record?
The IC50 was 3.42 µM.

Which IC50 [2] does the source give for “Diisopropyl 2,6-dimethyl-4-{3'-[N-- phenoxycarbonyl-1',2'-(1',6'-)dihydropyridyl]}-1,4-dihydropyridine-3,5-dicarboxylate [Compound D-38]” here?
The IC50 was 1.67 µM.

Which results are given for “Diisopropyl 2,6-dimethyl-4-{3'-[N--methoxycarbonyl-1',2'-(1',6'-)dihydropyridyl]}-1,4-dihydropyridine-3,5-dicarboxylate [Compound D-34]”?
IC50 [2]: 0.131 µM; calcium channel antagonist activity, comparison to Nifedipine (TM) [2]: active calcium channel antagonists, being comparable to Nifedipine (TM)

For “Dimethyl 2,6-dimethyl-4-{3'-[N--phenoxycarbonyl-1',2'-(1',6'-)dihydropyridyl]}-1,4-dihydropyridine-3,5-dicarboxylate [Compound D-36]”, which IC50 [2] is on record?
The IC50 was 3.7 µM.

From patent publication US4771057A, “Reduced pyridyl derivatives with cardiovascular regulating properties” (University of Alberta, priority 1986, dated 1988)
